These results are taken from patent US4315026A, “Alkylpolyoxysulfinyl and alkylpolythiosulfinyl derivatives of carbamate esters” (priority 1980, dated 1982).

Where two headings read alike, the source gives them in different places.

Assay type in all cases: in vivo
One series has as its system Swiss white mice. The series can be described thus: Mammalian toxicity, oral, Swiss white mice (LD50). The note with it: propylene glycol carrier. As for the experimental part:
(§1) For mice toxicity, the compound was dissolved in propyleneglycol or corn oil as a carrier and all compounds were tested at the level up to 1,000 mg/kg. All of the above noted compounds tested were lower in toxicity as compared with the parent compounds.
(§2) Mammalian toxicity was determined against Swiss white mice.

Series [1] deals with house flies, Musca domestica. Briefly: whole plant or invertebrate. Conditions: read-out: House flies LD50.
Description: In another series of tests, stock 1% concentrated solutions of each of the test compounds of Table I below, and of the commercial related carbamate ester insecticides methomyl, carbofuran and oxamyl, were made in acetone, and such solutions were diluted with acetone to a concentration of 0.001-0.8%. House flies were treated topically on the notum by 1 μl of each of the diluted acetone solutions and percent mortality was counted 24 hours after application.
Series [2] is described as follows: Mammalian toxicity, oral, Swiss white mice (LD50). The note with it: mouse, in vivo, propylene glycol carrier. As for the experimental part: as §1, §2
Setting [3] is: topical on the notum, 1 μl of 0.001-0.8% acetone solutions, 24 hours, 60° F.

With “3-Methylphenyl N-(2-phenyl-1,3-dioxane-5-ylmethoxysulfinyl)-N-methylcarbamate [XVIII]”, the “Mice LD50” value in the series with Swiss white mice is > 1,000 mg/kg.

As to `CSC(=NOC(=O)N(C)S(=O)OC1COC(c2ccccc2)OC1)C(=O)N(C)C` (stereo not shown) [XXVII, S-Methyl N-(2-phenyl-1,3-dioxane-5-ylmethoxysulfinyl)-N-methylcarbamoyloxy-2-(N',N'-dimethylamino)-2-oxoethanimidothioate], the LD50 (as a rule, the dose expected to kill half of the subjects tested) in series [1] (setting [3]) came to 161 mg/kg; in series [2], 25 mg/kg. Regarding `CSC(=NOC(=O)N(C)S(=O)OCC1COC(C)(C)O1)C(=O)N(C)C` (stereo not shown) [XXVIII, S-Methyl N-(2,2-dimethyl-1,3-dioxolane-5-ylmethoxysulfinyl)-N-methylcarbamoyloxy-2-(N'N'-dimethylamino)-2-oxoethanimidothioate], the LD50 came out at 2.6 mg/kg in series [1] (setting [3]) and 31 mg/kg in series [2]. Regarding `CSC(=NOC(=O)N(C)S(=O)OCC12OCC3OC(C)(C)OC3C1OC(C)(C)O2)C(=O)N(C)C` (stereo not drawn) [XXXIV, S-Methyl N-(2,3,4,5-Di-O-isopropylidene-1-α-O-fructopyranosylsulfinyl)-N-methylcarbamoyloxy-2-(N',N'-dimethylamino)-2-oxoethanimidothioate], the median lethal dose (LD50) came out at 20 mg/kg in series [1] (setting [3]) and 44 mg/kg in series [2]. In the case of `CSC(=NOC(=O)N(C)S(=O)OC1C(C2COC(C)(C)O2)OC2OC(C)(C)OC21)C(=O)N(C)C` (stereo not shown) [XXXV, S-Methyl N-(1,2,5,6-di-O-isopropylidene-3-O-glucofuranosylsulfinyl) N-methylcarbamoyloxy-2-(N',N'-dimethylamino)-2-oxoethanimidothioate], the LD50 was 26.5 mg/kg in series [1] (setting [3]) and 25 to 50 mg/kg in series [2]. On to `CNC(=O)Oc1cccc2c1OC(C)(C)C2` [carbofuran, reference compound], for which the 50% lethal dose (LD50) in series [1] (topical, 24 h) was 6.7 mg/kg; in series [2], 2 mg/kg. As for `CNC(=O)ON=C(SC)C(=O)N(C)C` [oxamyl, reference compound], the LD50 in series [1] (setting [3]) was determined as 3.6 mg/kg; in series [2], 3.7 mg/kg.
